≈ marks a conversion by molar mass, not a printed value. Values belong to the compound of their own block, whether it stands above or below them.
Assays:
[1] = test system: PC3 cells expressing MAN2A1-FER; assay: Killing of MAN2A1-FER expressing PC3 cells by kinase inhibitors; type: cell-based, human; details: for cell death: PC3 transformed with pCDNA4-MAN2A1-FER-FLAG/pCDNA6, MAN2A1-FER expressing, Crisotinib low dosage 24 hours; for specific killing of MAN2A1-FER expressing cells (FIG. 23): expression induced with 5 μg/mL tetracycline
[2] = test system: PC3 cells not expressing MAN2A1-FER (Tet−); assay: Killing of PC3 cells not expressing MAN2A1-FER (Tet−) by kinase inhibitors; type: cell-based, human; details: same treatment, cells not expressing the fusion protein (Tet−)
Experimental: FIG. 23. […] Prostate cancer cell line PC3 was transformed with pCDNA4-MAN2A1-FER-FLAG/pCDNA6. Expression of MAN2A1-FER was induced with 5 μg/mL tetracycline. Cells not treated with tetracycline nor any drug were used as background controls.
The second approach is to target EGFR activation by EGFR inhibitors. These include erlotinib, cetuximab, […], canertinib and […]. Many of these drugs were FDA approved and is widely used in a variety of human solid tumors. To interrogate the effectiveness of EGFR activation interruption in treating prostate cancer, we treated MAN2A1-FER transformed PC3 cells with canertinib.

[3] = test system: SLC45A2-AMACR transformed PC3 cells treated with tetracycline (PC3/SLAM tet+); assay: Ebselen cell growth inhibition, PC3/SLAM tet+; type: cell-based, human
Description: (§1) FIG. 26. […] Untransformed RWPE1, NIH3T3 cells and SLC45A2-AMACR transformed PC3 cells treated with (PC3/SLAM tet+) or without tetracycline (PC3/SLAM tet−) were applied with indicated concentration of Ebselen. Cell growths relative to unapplied controls were examined.
(§2) Therapeutic targeting at SLC45A2-AMACR using racemase inhibitor. To investigate whether targeting SLC45A2-AMACR is a viable approach to treat prostate cancer, we chose 2 approaches: 1) To intercept SLC45A2-AMACR/SHIP2-Akt pathway with small molecules; and 2) to block the ectopic racemase activity of SLC45A2-AMACR with ebselen or trifluoro-ibuprofen. […] This is probably due to Pten negative status of PC3 cells such that Akt pathway is fully activated regardless the presence of SLC45A2-AMACR. On the other hand, when we applied ebselen, the potent inhibitor of racemase of AMACR, to SLC45A2-AMACR expressing PC3 cells, 5 fold higher sensitivity of cell growth inhibition was found for PC3 cells transformed with pCDNA4-SLC45A2-AMACR-FLAG/pCDNA6 over the controls.

NIH3T3 cells = assay: Ebselen cell growth inhibition, NIH3T3; type: cell-based; details: Mus musculus
Description: as §1, §2

RWPE1 cells = assay: Ebselen cell growth inhibition, RWPE1; type: cell-based; details: Homo sapiens, RWPE-1
Description: as §1, §2

[4] = test system: SLC45A2-AMACR transformed PC3 cells without tetracycline (PC3/SLAM tet−); assay: Ebselen cell growth inhibition, PC3/SLAM tet−; type: cell-based; details: Homo sapiens, PC-3
Description: as §1, §2

[5] = test system: DU145 cells containing TMEM135-CCDC67 breakpoint (DU145 + pCMV-BP); assay: FACS analysis of apoptotic cells (Annexin V), DU145 with breakpoint; type: cell-based; details: DU145 with breakpoint infected with both adenoviruses
Experimental: (§3) FIG. 31A-B. Treatment with nucleotide analogue ganciclovir kills cancer cells expressing EGFP-tk. (A) PC3 or DU145 cells containing the TMEM135-CCDC67 fusion gene were infected with pAD5-Cas9^D10A-gRNA^TMEM135int13-gRNA^CCDC67int9 and pAD-TMEM135int13-EGFP-tk-CCDC67int9. These cells were then incubated with various concentrations of ganciclovir for 24 hours. Cell deaths were then quantified with phycoerythrin labeled Annexin V through flow cytometer. PC3 or DU145 cells harboring no TMEM135-CCDC67 breakpoint were used as controls. (B) Representative sample of cell death induced by ganciclovir on cells infected with pAD5-Cas9^D10A-gRNA^TMEM135int13-gRNA^CCDC67int9 and pAD-TMEM135int13-EGFP-tk-CCDC67int9, and treated with 5 μg/ml ganciclovir. PC3 or DU145 cells harboring no TMEM135-CCDC67 breakpoint were used as controls. Apoptosis was indicated by Annexin V staining.
(§4) Fluorescence activated cell sorting (FACS) analysis of apoptotic cells. The assays were previously described.^8-16 Briefly, the cells treated with pAD5-Cas9^D10A-gRNA^TMEM135int13-gRNA^CCDC67int9/pAD-TMEM135int13-EGFP-tk-CDC67int9, and various concentrations of ganciclovir were trypsinized and washed twice with cold PBS. […] The fluorescence stained cells were analyzed at the fluorescence emission at 533 nm (FL2). […] For each acquisition, 10,000 to 20,000 cells were sorted based on the fluorescence color of the cells. […]

[6] = test system: PC3 cells harboring no TMEM135-CCDC67 breakpoint (PC3 + pCMV); assay: FACS analysis of apoptotic cells (Annexin V), PC3 without breakpoint; type: cell-based, human; details: PC3, equally infected, ganciclovir up to 100 μg/ml
Experimental: as §3, §4

[7] = test system: DU145 cells harboring no TMEM135-CCDC67 breakpoint (DU145 + pCMV); assay: FACS analysis of apoptotic cells (Annexin V), DU145 without breakpoint; type: cell-based; details: DU145, equally infected, ganciclovir up to 100 μg/ml
Experimental: as §3, §4

[8] = test system: PC3 cells containing TMEM135-CCDC67 breakpoint; assay: Ganciclovir cell death after co-transfection of TK donor DNA and nickase-gRNA vector, breakpoint cells; type: cell-based, human
Experimental: (§5) FIG. 28A-B. Genetic therapy targeting at TMEM135-CCDC67 genome breakpoint.
(§6) The technique described above was applied to cells having the TMEM135-CCDC67 breakpoint. Since none of the fusion genes identified so far was present in prostate cancer cell lines, a TMEM135-CCDC67 genome breakpoint was created that is identical to the prostate cancer sample were analyzed. The expression of the TMEM135-CCDC67 breakpoint was driven by a CMV promoter. Subsequently, a donor DNA was constructed that encompassed HSV-1 TK and the splicing sites of TMEM135 exon 14. When this donor DNA was co-transfected with a vector that expresses gRNA targeting at the TMEM135-CCDC67 breakpoint into PC3 cells containing this genome breakpoint, integration of TK into the genome was identified (FIG. 28A). […] This is remarkable in considering only 5-10% transfection efficiency using conventional liposome method. […] In light of this promising result, both TMEM135-CCDC67-TK cassette and NicKase-gRNATMEM135-CCDC67-BrkPt DNA are now in the process of packaging into Adenovirus. We will infect the recombinant virus into these cells in the future experiments. This will dramatically improve the delivery efficiency in the subsequent animal study and probably human.

[9] = test system: PC3 cells containing TMEM135-CCDC67 breakpoint (PC3 + pCMV-BP); assay: FACS analysis of apoptotic cells (Annexin V), PC3 with breakpoint; type: cell-based, human; details: PC3 with breakpoint infected with both adenoviruses
Experimental: as §3, §4

[10] = test system: PC3 cells without TMEM135-CCDC67 breakpoint; assay: Ganciclovir cell death after co-transfection of TK donor DNA and nickase-gRNA vector, cells without breakpoint; type: cell-based, human; details: same treatment
Experimental: as §5, §6

Structure (SMILES): C=CC(=O)Nc1cc2c(Nc3ccc(F)c(Cl)c3)ncnc2cc1OCCCN1CCOCC1 [canertinib]
- cell death [1]: 34%
- specific killing of MAN2A1-FER expressing cells (FIG. 23) [1]: specifically kills cells expressing MAN2A1-FER
- killing of cells that do not express MAN2A1-FER [2]: minimal

Structure (SMILES): C[C@@H](Oc1cc(-c2cnn(C3CCNCC3)c2)cnc1N)c1c(Cl)ccc(F)c1Cl [Crisotinib]
- cell death [1]: 31%
- lowering of cancer killing EC50 by expression of MAN2A1-FER ([1]; dosage effect analysis, expressing vs not expressing): ~100 fold
- specific killing of MAN2A1-FER expressing cells (FIG. 23) [1]: specifically kills cells expressing MAN2A1-FER
- killing of cells that do not express MAN2A1-FER [2]: hardly killed

Structure (SMILES): Cn1cnc2c(F)c(Nc3ccc(Br)cc3Cl)c(C(=O)NOCCO)cc21 [AZD6244]
- differential killing effect (MAN2A1-FER expressing vs not) ([1]; MEK interception, data not shown): largely moderated and vanished

- IC50 ([3]; Homo sapiens, PC-3, PC3/SLAM tet+): 37 µM
- IC50 [4]: 173 µM
Structure (SMILES): O=c1c2ccccc2[se]n1-c1ccccc1 [Ebselen, ebselen]
- higher sensitivity of cell growth inhibition over the controls ([3]; PC3 transformed with pCDNA4-SLC45A2-AMACR-FLAG/pCDNA6 vs controls): 5 fold
- IC50 (NIH3T3 cells): > 300 µM
- IC50 (RWPE1 cells): > 300 µM

Structure (SMILES): Nc1nc2c(ncn2COC(CO)CO)c(=O)[nH]1 [ganciclovir, 9-(1,3-dihydroxy-2-propoxymethyl)guanine]
- ganciclovir concentration at which killing was at the peak [5]: 5 µg/mL
- EC50 ([5]; Homo sapiens, DU-145, 24 hours, read-out: ganciclovir concentration at which killing reached 50% of its maximal level): 0.075 µg/mL (≈ 0.294 µM)
- cell deaths in cells containing no breakpoint [6]: No significant cell deaths
- cell deaths in cells containing no breakpoint [7]: No significant cell deaths
- increase of cell death ([8]; PC3 with breakpoint co-transfected with donor DNA and gRNA vector, liposome method): 8 fold
- specific killing of breakpoint containing cells (FIG. 28B) ([8]; transfected with pTMEM135-CCDC67-TK-GFP and pNicKase-RFP-gRNA-TMEM135-CCDC67-BrkPt): specific killing
- EC50 ([9]; Homo sapiens, PC-3, 24 hours, read-out: ganciclovir concentration at which killing reached 50% of its maximal level): 0.075 µg/mL (≈ 0.294 µM)
- ganciclovir concentration at which killing was at the peak [9]: 5 µg/mL
- cell death [10]: minimal cell death

Reference: patent publication US10308960B2, “Methods for treating cells containing fusion genes” (University of Pittsburgh—of the Commonwealth System of …, priority 2014, dated 2019)
